According to US12440496B2, “Natriuretic peptide receptor a agonists useful for the treatment of cardiometabolic diseases, kidney disease and diabetes” (Merck Sharp & Dohme LLC, priority 2019, dated 2025):
Counter-ions that a name gives are not always drawn.

Target: T1, hNPRA (Homo sapiens, UniProt P16066)
T1 construct: expressed in transfected cells
T1 sequence (P16066 33-1061): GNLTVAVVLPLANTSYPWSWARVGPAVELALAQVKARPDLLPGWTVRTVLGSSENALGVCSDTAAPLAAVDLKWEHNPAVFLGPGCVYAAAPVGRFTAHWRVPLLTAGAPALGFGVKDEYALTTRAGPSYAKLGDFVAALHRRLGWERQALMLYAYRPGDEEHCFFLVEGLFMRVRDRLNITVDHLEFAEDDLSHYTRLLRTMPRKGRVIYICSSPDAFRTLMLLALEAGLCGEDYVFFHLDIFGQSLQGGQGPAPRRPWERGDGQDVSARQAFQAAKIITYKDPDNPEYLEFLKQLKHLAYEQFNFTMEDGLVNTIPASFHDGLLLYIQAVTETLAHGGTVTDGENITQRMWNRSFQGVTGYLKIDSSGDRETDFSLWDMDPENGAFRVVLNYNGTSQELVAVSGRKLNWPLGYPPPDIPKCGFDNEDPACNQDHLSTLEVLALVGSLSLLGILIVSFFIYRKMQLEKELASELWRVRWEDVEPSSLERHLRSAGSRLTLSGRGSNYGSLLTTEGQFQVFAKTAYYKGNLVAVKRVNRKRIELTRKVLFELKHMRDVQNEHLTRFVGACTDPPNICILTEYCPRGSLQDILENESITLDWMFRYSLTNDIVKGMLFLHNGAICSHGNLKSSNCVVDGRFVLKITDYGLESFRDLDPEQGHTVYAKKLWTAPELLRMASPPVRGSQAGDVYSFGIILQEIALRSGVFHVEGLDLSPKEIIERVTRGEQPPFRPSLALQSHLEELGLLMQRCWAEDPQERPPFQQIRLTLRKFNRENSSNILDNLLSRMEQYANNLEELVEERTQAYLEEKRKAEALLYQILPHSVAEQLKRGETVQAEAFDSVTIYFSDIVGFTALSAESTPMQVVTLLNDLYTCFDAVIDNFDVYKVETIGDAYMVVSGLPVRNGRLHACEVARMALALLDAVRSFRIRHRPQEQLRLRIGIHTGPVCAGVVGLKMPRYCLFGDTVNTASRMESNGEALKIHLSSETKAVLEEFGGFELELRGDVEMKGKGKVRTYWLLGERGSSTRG
Assay: NPRA Functional Cell Assay (cGMP HTRF, NPRA HEK JumpIn stable cells)
Format: cell-based
Settings: cGMP production, 1 hour at 37° C., 10-point dose response
Excerpt: NPRA Functional Cell Assay
Assay Buffer components HEPES and Opti-MEM® I Reduced-Serum with Glutamine (no phenol red) were from Gibco/Invitrogen (Thermo Fisher Scientific, Waltham, MA USA). 3-Isobutyl-1-methylxanthine (IBMX) and 4-(3-Butoxy-4-methoxybenzyl) imidazolidin-2-one (RO20) were obtained from Sigma-Aldrich (St. Louis, MO, USA). DPBS (Dulbecco's phosphate-buffered saline) without Ca2+ and Mg2+ was purchased from GE Healthcare Bio-Sciences (Pittsburgh, PA, USA). 384 well white Optiplates were from Perkin Elmer (Atlantic Highlands, NJ, USA). Human ANP (Atrial Natriuretic Peptide) (1-28) was purchased from Sigma-Aldrich (Catalog #A1663) and rat ANP (1-28) from Bachem (Torrance, CA, USA) (Catalog #H2100). Human-BNP (Human-Brain Natriuretic Peptide) (1-32 AA) was purchased from American Peptide Company (Sunnyvale, CA, USA) (product No. 14-1-90). cGMP kits were purchased from Cisbio. The assay ready frozen (ARF) Human/rat/dog NPRA HEK JumpIn Stable frozen cells (low passage number 5-11) were prepared in-house.
Test compounds were titrated in DMSO in a 10-point dose response in a separate step followed by a 100-fold dilution into the reaction. Positive response for each assay was determined using 10 nM rat-ANP peptide (rat cells) or 50 nM h-ANP peptide (human and dog cells).
Cells were thawed, washed with DPBS and resuspended in assay buffer (Opti-MEM+Glutamine, phenol red free media, 10 mM HEPES, 100 uM IBMX and 100 uM RO20) that was warmed to 37° C. Cells were then transferred to microplates via a Microplate Combi dispenser at a density of 1500, 400 and 1200 cells/well for human, rat and dog cells respectively, followed by acoustic transfer (Echo) of compound.
(§1) Compounds and cells were incubated at 37° C. with 5% CO2 for 1 hour, after which the cells were lysed and cGMP was captured using a CisBio cGMP HTRF assay kit. The TRF signal was measured with an Envision plate reader (emission set to 615 and 665 nm) after 1 hour incubation at ambient temperature. The TRF signal was converted to [cGMP] through the use of a cGMP calibration curve on each microplate. EC50's were generated from the resulting dose response curves by use of a 4 parameter logistic algorithm.
Assay Buffer components HEPES and Opti-MEM® I Reduced-Serum with Glutamine (no phenol red) were from Gibco/Invitrogen. 3-Isobutyl-1-methylxanthine (IBMX) and 4-(3-Butoxy-4-methoxybenzyl) imidazolidin-2-one (RO20) were obtained from Sigma. DPBS (Dulbecco's phosphate-buffered saline) without Ca2+ and Mg2+ was purchased from GE Healthcare Bio-Sciences (Pittsburgh, PA, USA). 384 well white Optiplates were from Perkin Elmer (Atlantic Highlands, NJ, USA). Human ANP (1-28) was purchased from Sigma (A1663) and rat ANP (1-28) from Bachem (H2100). Human-BNP (1-32 AA) was purchased from American Peptide Company (Sunnyvale, CA, USA) (product No. 14-1-90). cGMP kits were purchased from Cisbio (Bedford, MA, USA). The assay ready frozen (ARF) Human/rat/dog NPRA HEK JumpIn Stable frozen cells (low passage number 5-11) were prepared in-house.
as §1, with “Envision®” for “Envision”, “reader (Perkin Elmer)” for “reader”
hNPRA EC50 (nM) were determined for the compounds of Example 1 through Example 273 and are reported in the Experimental section of this application.

Compared with `CN(C)S(=O)(=O)Nc1cccc([C@@H](CCN2CCC(O)CC2)NC(=O)c2nc3cc4c(nc3s2)CC[C@H](C(C)(C)C)C4)c1` (mixture of isomers) [Example 216, (7S)-7-tert-butyl-N-[rac-(1R)-1-[3-(dimethylsulfamoylamino)phenyl]-3-(4-hydroxypiperidin-1-ium-1-yl)propyl]-5,6,7,8-tetrahydrothiazolo[5,4-b]quinoline-2-carboxamide; formate], `CC(C)(C)[C@H]1CCc2nc3sc(C(=O)N[C@H](CCN4CCC(O)CC4)c4cccc(NS(C)(=O)=O)c4)cc3cc2C1` (racemic) [Example 8, ammonium; methylsulfonyl-[3-[rac-(1R)-3-(4-hydroxy-1-piperidyl)-1-[rac-(6S)-6-tert-butyl-5,6,7,8-tetrahydrothieno[2,3-b]quinoline-2-carbonyl]amino]propyl]phenyl] azanide] is 4.4-fold lower in EC50: 1980 nM for the first, 453 nM for the second. The second is the more potent here.

Going from `CC(C)(C)[C@H]1CCc2nc3sc(C(=O)N[C@H](CCN4CCCCC4)c4ccc(-c5ccc(O)nc5)cc4)cc3cc2C1` (racemic) [Example 1, ammonium;5-[4-[rac-(1R)-3-(1-piperidyl)-1-[[rac-(6S)-6-tert-butyl-5,6,7,8-tetrahydrothieno[2,3-b]quinoline-2-carbonyl]amino]propyl]phenyl]yridine-2-olate] to `CC(C)(C)[C@H]1CCc2nc3sc(C(=O)N[C@H](CCN4CCCCC4)c4ccc(-c5cn[nH]c5)cc4)cc3cc2C1` (racemic) [Example 5, rac-(6S)-6-tert-butyl-N-[rac-(1R)-3-(1-piperidy])-1-[4-(1H-pyrazol-4-yl)phenyl]propyl]-5,6,7,8-tetrahydrothieno[2,3-b]quinoline-2-carboxamide], the EC50 rises from 233 nM to 777 nM (3.3-fold). The first is the more potent here.

First: CC(C)(C)[C@H]1CCc2nc3sc(C(=O)N[C@H](CCN4CCCCC4)c4ccc(-c5cnc(=O)[nH]c5)cc4)cc3cc2C1 (racemic) [Example 2, rac-(6S)-6-tert-butyl-N-[rac-(1R)-1-[4-(2-oxo-1H-pyrimidin-5-yl)phenyl]-3-(1-piperidyl)propyl]-5,6,7,8-tetrahydrothieno[2,3-b]quinoline-2-carboxamide]
Second: CC(C)(C)[C@H]1CCc2nc3sc(C(=O)N[C@H](CCN4CCCCC4)c4ccc(-c5cncnc5)cc4)cc3cc2C1 (racemic) [Example 7, rac-(6S)-6-tert-butyl-N-[rac-(1R)-3-(1-piperidyl)-1-(4-pyrimidin-5-ylphenyl)propyl]-5,6,7,8-tetrahydrothieno[2,3-b]quinoline-2-carboxamide]
The EC50 of the first is 3.9-fold lower: 518 nM for the first, 2000 nM for the second.

`CC(C)(C)[C@H]1CCc2nc3sc(C(=O)N[C@H](CCN4CCCCC4)c4ccc(-c5ccoc5)cc4)cc3cc2C1` (racemic) [Example 3, rac-(6S)-6-tert-butyl-N-[rac-(1R)-1-[4-(3-furyl)phenyl]-3-(1-piperidyl)propyl]-5,6,7,8-tetrahydrothieno[2,3-b]quinoline-2-carboxamide] and `Cn1nccc1-c1ccc([C@@H](CCN2CCCCC2)NC(=O)c2cc3cc4c(nc3s2)CC[C@H](C(C)(C)C)C4)cc1` (racemic) [Example 4, rac-(6S)-6-tert-butyl-N-[rac-(1R)-1-[4-(2-methylpyrazol-3-yl)phenyl]-3-(1-piperidyl)propyl]-5,6,7,8-tetrahydrothieno[2,3-b]quinoline-2-carboxamide] are within 1.5-fold of each other in EC50: 675 nM for the first, 753 nM for the second.

`CC(C)(C)[C@H]1CCc2nc3sc(C(=O)N[C@H](CCN4CCCCC4)c4ccc(-c5csc(C(=O)O)c5)cc4)cc3cc2C1` (racemic) [Example 6, ammonium;4-[4-[rac-(1R)-3-(1-piperidyl)-1-[rac-(6S)-6-tert-butyl-5,6,7,8-tetrahydrothieno[2,3-b]quinoline-2-carbonyl]amino]propyl] phenyl]thiophene-2-carboxylate] and `CC(C)(C)[C@H]1CCc2nc3sc(C(=O)N[C@H](CCN4CCCCC4)c4cccc(NS(C)(=O)=O)c4)cc3cc2C1` (racemic) [Example 11, ammonium; methylsulfonyl-[3-[rac-(1R)-3-(1-piperidyl)-1-[rac-(6S)-6-tert-butyl-5,6,7,8-tetrahydrothieno[2,3-b]quinoline-2-carbonyl]amino]propyl]phenyl] azanide] are within 1.5-fold of each other in EC50: 877 nM for the first, 718 nM for the second.

`CN(C)CC[C@@H](NC(=O)c1cc2cc3c(nc2s1)CC[C@H](C(C)(C)C)C3)c1cccc(NS(C)(=O)=O)c1` (racemic) [Example 9, ammonium; methylsulfonyl-[3-[rac-(1R)-3-(dimethylamino)-1-[rac-(6S)-6-tert-butyl-5,6,7,8-tetrahydrothieno[2,3-b]quinoline-2-carbonyl]amino]propyl]phenyl] azanide] and `CC(C)(C)[C@H]1CCc2nc3sc(C(=O)N[C@H](CCN4CCCC(O)C4)c4cccc(NS(C)(=O)=O)c4)cc3cc2C1` (mixture of isomers) [Example 12, ammonium; methylsulfonyl-[3-[rac-(1R)-3-(3-hydroxy-1-piperidyl)-1-[[rac-(6S)-6-tert-butyl-5,6,7,8-tetrahydrothieno[2,3-b]quinoline-2-carbonyl]amino]propyl]phenyl] azanide] are within 1.5-fold of each other in EC50: 708 nM for the first, 790 nM for the second.

`CC(C)(C)[C@H]1CCc2nc3sc(C(=O)N[C@H](CCNC4CCOCC4)c4cccc(NS(C)(=O)=O)c4)cc3cc2C1` (racemic) [Example 10, ammonium; methylsulfonyl-[3-[rac-(1R)-1-[[rac-(6S)-6-tert-butyl-5,6,7,8-tetrahydrothieno[2,3-b]quinoline-2-carbonyl]amino]-3-(tetrahydro-pyran-4-ylamino)propyl]phenyl]azanide] and `CC(C)(C)[C@H]1CCc2nc3sc(C(=O)N[C@H](CCN4CCCC5(CC5)C4)c4cccc(NS(C)(=O)=O)c4)cc3cc2C1` (racemic) [Example 13, ammonium; methylsulfonyl-[3-[rac-(1R)-3-(5-azaspiro[2.5]octan-5-yl)-1-[[rac-(6S)-6-tert-butyl-5,6,7,8-tetrahydrothieno[2,3-b]quinoline-2-carbonyl]amino]propyl]phenyl] azanide] are within 1.5-fold of each other in EC50: 710 nM for the first, 809 nM for the second.
